Tests used:
[1] = target: T1, wild type LRRK2 overexpressed in recombinant HEK-293T cells (Homo sapiens, UniProt Q5S007); experiment: pS935 LRRK2 Cell Assay (HTRF, phospho-LRRK2 Ser935); type: cell-based; details: LRRK2 Inhibition, Table 8, 2 hours compound incubation
T1 construct: host or cells: HEK293T (transient transfection with pCMV-LRRK2 WT plasmid)
Outline: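 Phospho-Ser935 LRRK2 measured by two-antibody HTRF (Eu-cryptate donor, d2 acceptor; 665/615 nm ratio) after overnight detection at 23° C. Before lysis, transiently LRRK2-transfected HEK-293T cells were exposed 2 h at 37° C to a 9-point, 3-fold series from 10 μM, with DMSO at 0.2%.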

LRRK2 wild type enzyme = LRRK2 wild type enzyme (Homo sapiens, UniProt Q5S007); experiment: Biochemical Assay: LRRK2 TR-FRET (LanthaScreen) kinase assay with LRRKtide substrate; details: LRRK2 Inhibition, Table 8
Sequence of LRRK2 wild type enzyme (Q5S007 whole entry): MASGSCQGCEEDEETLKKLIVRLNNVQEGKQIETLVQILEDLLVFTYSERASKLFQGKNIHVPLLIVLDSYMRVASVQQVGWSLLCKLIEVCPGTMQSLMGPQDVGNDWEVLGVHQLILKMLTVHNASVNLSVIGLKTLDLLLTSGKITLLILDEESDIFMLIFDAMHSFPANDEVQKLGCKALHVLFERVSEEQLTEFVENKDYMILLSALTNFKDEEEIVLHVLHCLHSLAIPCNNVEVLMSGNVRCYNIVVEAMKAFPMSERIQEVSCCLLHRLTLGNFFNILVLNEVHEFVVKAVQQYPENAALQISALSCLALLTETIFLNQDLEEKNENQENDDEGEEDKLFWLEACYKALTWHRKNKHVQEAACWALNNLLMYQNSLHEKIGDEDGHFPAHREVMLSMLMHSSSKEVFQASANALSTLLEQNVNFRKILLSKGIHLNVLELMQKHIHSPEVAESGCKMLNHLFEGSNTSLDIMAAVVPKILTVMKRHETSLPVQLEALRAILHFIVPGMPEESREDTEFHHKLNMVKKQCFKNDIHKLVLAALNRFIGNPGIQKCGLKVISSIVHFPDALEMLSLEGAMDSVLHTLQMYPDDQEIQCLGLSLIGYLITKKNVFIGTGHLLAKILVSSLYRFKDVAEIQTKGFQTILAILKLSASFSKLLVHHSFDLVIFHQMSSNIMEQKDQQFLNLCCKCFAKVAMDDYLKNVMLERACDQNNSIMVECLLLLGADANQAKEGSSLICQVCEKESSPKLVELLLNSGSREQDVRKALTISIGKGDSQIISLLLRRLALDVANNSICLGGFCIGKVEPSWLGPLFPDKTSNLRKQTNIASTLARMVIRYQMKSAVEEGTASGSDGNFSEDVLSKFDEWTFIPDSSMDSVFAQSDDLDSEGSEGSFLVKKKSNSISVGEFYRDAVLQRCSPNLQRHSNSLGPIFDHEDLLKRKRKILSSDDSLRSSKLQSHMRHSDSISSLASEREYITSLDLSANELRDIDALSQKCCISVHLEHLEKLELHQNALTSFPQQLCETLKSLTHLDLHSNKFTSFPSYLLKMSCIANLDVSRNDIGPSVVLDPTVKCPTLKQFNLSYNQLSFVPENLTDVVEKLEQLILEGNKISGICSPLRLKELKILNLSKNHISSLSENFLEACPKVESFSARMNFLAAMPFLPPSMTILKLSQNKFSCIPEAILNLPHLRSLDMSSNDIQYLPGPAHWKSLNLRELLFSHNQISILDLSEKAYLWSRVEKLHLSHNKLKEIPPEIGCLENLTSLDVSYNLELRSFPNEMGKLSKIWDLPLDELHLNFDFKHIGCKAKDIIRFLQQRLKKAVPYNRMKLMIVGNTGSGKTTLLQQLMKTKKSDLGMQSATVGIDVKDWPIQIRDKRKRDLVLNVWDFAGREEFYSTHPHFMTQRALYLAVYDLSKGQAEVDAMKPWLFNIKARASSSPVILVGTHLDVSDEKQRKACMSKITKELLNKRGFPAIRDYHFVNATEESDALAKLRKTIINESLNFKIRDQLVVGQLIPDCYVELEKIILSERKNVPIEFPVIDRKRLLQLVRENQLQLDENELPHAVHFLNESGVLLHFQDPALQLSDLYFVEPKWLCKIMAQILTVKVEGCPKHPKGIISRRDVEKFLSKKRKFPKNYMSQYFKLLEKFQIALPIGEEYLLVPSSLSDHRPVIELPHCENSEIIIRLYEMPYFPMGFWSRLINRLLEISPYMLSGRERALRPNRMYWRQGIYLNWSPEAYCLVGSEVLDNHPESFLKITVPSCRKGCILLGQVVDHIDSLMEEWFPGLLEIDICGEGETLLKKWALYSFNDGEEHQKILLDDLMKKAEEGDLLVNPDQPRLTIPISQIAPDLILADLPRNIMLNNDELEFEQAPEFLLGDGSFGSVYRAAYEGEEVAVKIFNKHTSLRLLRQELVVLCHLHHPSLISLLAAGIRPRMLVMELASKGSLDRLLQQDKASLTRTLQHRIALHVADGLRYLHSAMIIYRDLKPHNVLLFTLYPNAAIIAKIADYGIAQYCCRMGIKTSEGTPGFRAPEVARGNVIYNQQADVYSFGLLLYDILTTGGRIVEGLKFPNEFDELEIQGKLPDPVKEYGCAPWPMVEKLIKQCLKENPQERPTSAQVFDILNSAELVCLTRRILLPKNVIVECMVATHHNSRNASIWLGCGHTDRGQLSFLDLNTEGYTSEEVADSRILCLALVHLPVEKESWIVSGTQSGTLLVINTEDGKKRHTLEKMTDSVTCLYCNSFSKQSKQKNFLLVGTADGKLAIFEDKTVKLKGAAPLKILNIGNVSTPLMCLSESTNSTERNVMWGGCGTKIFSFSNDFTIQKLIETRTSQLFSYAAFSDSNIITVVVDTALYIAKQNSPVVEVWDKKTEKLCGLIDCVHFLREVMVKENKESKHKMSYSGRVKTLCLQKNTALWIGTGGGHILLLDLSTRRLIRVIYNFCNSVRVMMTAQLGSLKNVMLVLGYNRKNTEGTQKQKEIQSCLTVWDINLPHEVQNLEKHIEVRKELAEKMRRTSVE
Outline: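 TR-FRET detection (Tb-labelled phospho-LRRKtide antibody, EDTA stop, 30 min) followed a 120 min, 23 °C reaction of 3 nM wild-type human LRRK2 with LRRKtide (400 nM) and ATP (25 μM) in Tris pH 8.0. Compounds: 11-point 3-fold series from 10 μM, 15 min enzyme preincubation.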

T1 sequence (Q5S007 whole entry): as above

Row | Structure (SMILES) | IC50 [1] [nM] | IC50 (LRRK2 wild type enzyme) [nM]
1 | C[C@@H]1C[C@H](n2c(C3CC(=O)N(Cc4cccnc4)C3)nc3cnc4ccc(C#N)cc4c32)CCO1 (mixture of isomers) [Compound 57, 1-[(2R,4R)-2-methyloxan-4-yl]-2-[(3RS)-5-oxo-1-[(pyridin-3-yl)methyl]pyrrolidin-3-yl]-1H-imidazo[4,5-c]quinoline-8-carbonitrile] | 216 | 0.958
2 | Cc1nccnc1NC(=O)Cc1nc2cnc3ccc(C#N)cc3c2n1[C@@H]1CCO[C@H](C)C1 [Compound 311, N-(3-methyl-2-pyrazinyl){3-[(2R,4R)-2-methyltetrahydro-2H-pyran-4-yl]-12-cyano-3,5,8-triazatricyclo[7.4.0.0^2,6]trideca-1(9),2(6),4,7,10,12-hexaen-4-yl}acetamide] | 10 | 0.583
3 | COc1ncc(NC(=O)Cc2nc3cnc4ccc(C#N)cc4c3n2[C@@H]2CCO[C@H](C)C2)c(C)n1 [Compound 243, N-(2-methoxy-4-methyl-5-pyrimidinyl){3-[(2R,4R)-2-methyltetrahydro-2H-pyran-4-yl]-12-cyano-3,5,8-triazatricyclo[7.4.0.0^2,6]trideca-1(9),2(6),4,7,10,12-hexaen-4-yl}acetamide] | 11.5 | 0.565
4 | COc1cc(C(F)(F)F)ncc1NC(=O)Cc1nc2cnc3ccc(C#N)cc3c2n1[C@@H]1CCO[C@H](C)C1 [Compound 228, N-[4-methoxy-6-(trifluoromethyl)-3-pyridyl]{3-[(2R,4R)-2-methyltetrahydro-2H-pyran-4-yl]-12-cyano-3,5,8-triazatricyclo[7.4.0.0^2,6]trideca-1,4,6,8,10,12-hexaen-4-yl}acetamide] | 3.17 | 0.36
5 | Cc1cnncc1NC(=O)Cc1nc2cnc3ccc(C#N)cc3c2n1[C@@H]1CCO[C@H](C)C1 [Compound 258, N-(5-methyl-4-pyridazinyl){3-[(2R,4R)-2-methyltetrahydro-2H-pyran-4-yl]-12-cyano-3,5,8-triazatricyclo[7.4.0.0^2,6]trideca-1,4,6,8,10,12-hexaen-4-yl}acetamide] | 17.2 | 0.521
6 | C[C@@H]1C[C@H](n2c(CC(=O)Nc3cccn(CCO)c3=O)nc3cnc4ccc(C#N)cc4c32)CCO1 [Compound 225, N-[1-(2-hydroxyethyl)-2-oxo-1,2-dihydro-3-pyridyl]{3-[(2R,4R)-2-methyltetrahydro-2H-pyran-4-yl]-12-cyano-3,5,8-triazatricyclo[7.4.0.0^2,6]trideca-1,4,6,8,10,12-hexaen-4-yl}acetamide] | 104 | 0.388
7 | C[C@@H]1C[C@H](n2c(CC(=O)NCc3ccncc3)nc3cnc4ccc(C#N)cc4c32)CCO1 [Compound 15, 2-{8-cyano-1-[(2R,4R)-2-methyloxan-4-yl]-1H-imidazo[4,5-c]quinolin-2-yl}-N-[(pyridin-4-yl)methyl]acetamide] | 15.8 | 0.294
8 | C[C@@H]1C[C@H](n2c(CC(=O)Nc3ccn(C)n3)nc3cnc4ccc(C#N)cc4c32)CCO1 [Compound 188, 2-{8-cyano-1-[(2R,4R)-2-methyloxan-4-yl]-1H-imidazo[4,5-c]quinolin-2-yl}-N-(1-methyl-1H-pyrazol-3-yl)acetamide] | 7.58 | 0.321
9 | C[C@@H]1C[C@H](n2c(CC(=O)NCC(C)(C)CO)nc3cnc4ccc(C#N)cc4c32)CCO1 [Compound 241, N-(3-hydroxy-2,2-dimethylpropyl){3-[(2R,4R)-2-methyltetrahydro-2H-pyran-4-yl]-12-cyano-3,5,8-triazatricyclo[7.4.0.0^2,6]trideca-1(9),2(6),4,7,10,12-hexaen-4-yl}acetamide] | 77.6 | 0.991
10 | C[C@@H]1C[C@H](n2c(C(F)(F)C(=O)NCC3CC3)nc3cnc4ccc(C#N)cc4c32)CCO1 [Compound 334] | 26.5 | 1.34
11 | C[C@@H]1C[C@H](n2c(C3CCN(C(=O)C4CC4)CC3)nc3cnc4ccc(C#N)cc4c32)CCO1 [Compound 27, 2-(1-cyclopropanecarbonylpiperidin-4-yl)-1-[(2R,4R)-2-methyloxan-4-yl]-1H-imidazo[4,5-c]quinoline-8-carbonitrile] | 115 | 1.49
12 | C[C@@H]1C[C@H](n2c(CC(=O)Nc3nccc(C4CC4)n3)nc3cnc4ccc(C#N)cc4c32)CCO1 [Compound 338, N-(4-cyclopropyl-2-pyrimidinyl){3-[(2R,4R)-2-methyltetrahydro-2H-pyran-4-yl]-12-cyano-3,5,8-triazatricyclo[7.4.0.0^2,6]trideca-1(9),2(6),4,7,10,12-hexaen-4-yl}acetamide] | 1.87 | 0.364
13 | C[C@@H]1C[C@H](n2c(CC(=O)Nc3ccncc3)nc3cnc4ccc(C#N)cc4c32)CCO1 [Compound 326, N-4-pyridyl{3-[(2R,4R)-2-methyltetrahydro-2H-pyran-4-yl]-12-cyano-3,5,8-triazatricyclo[7.4.0.0^2,6]trideca-1(9),2(6),4,7,10,12-hexaen-4-yl}acetamide] | 4.86 | 0.492
14 | C[C@@H]1C[C@H](n2c(CC(=O)N[C@H]3C[C@@H](OCc4ccccn4)C3)nc3cnc4ccc(C#N)cc4c32)CCO1 [Compound 162, 2-{8-cyano-1-[(2R,4R)-2-methyloxan-4-yl]-1H-imidazo[4,5-c]quinolin-2-yl}-N-[(1rs,3rs)-3-[(pyridin-2-yl)methoxy]cyclobutyl]acetamide] | 55.2 | 0.485
15 | COc1nn(C)cc1NC(=O)Cc1nc2cnc3ccc(C#N)cc3c2n1[C@@H]1CCO[C@H](C)C1 [Compound 229, N-(3-methoxy-1-methyl-4-pyrazolyl){3-[(2R,4R)-2-methyltetrahydro-2H-pyran-4-yl]-12-cyano-3,5,8-triazatricyclo[7.4.0.0^2,6]trideca-1,4,6,8,10,12-hexaen-4-yl}acetamide] | 6.62 | 0.316
16 | C[C@@H]1C[C@H](n2c([C@H]3CN(CC4CC4)S(=O)(=O)C3)nc3cnc4ccc(C#N)cc4c32)CCO1 [Compound 2, 2-[(4R)-2-(cyclopropylmethyl)-1,1-dioxo-1λ^6,2-thiazolidin-4-yl]-1-[(2R,4R)-2-methyloxan-4-yl]-1H-imidazo[4,5-c]quinoline-8-carbonitrile] | 39.2 | 0.662
17 | C[C@@H]1C[C@H](n2c(CC(=O)Nc3ccon3)nc3cnc4ccc(Cl)cc4c32)CCO1 [Compound 352, N-3-isoxazolyl{3-[(2R,4R)-2-methyltetrahydro-2H-pyran-4-yl]-12-chloro-3,5,8-triazatricyclo[7.4.0.0^2,6]trideca-1(9),2(6),4,7,10,12-hexaen-4-yl}acetamide] | 4.06 | 0.507
18 | CC(=O)N1CCC(c2nc3cnc4ccc(C#N)cc4c3n2[C@@H]2CCO[C@H](C)C2)CC1 [Compound 116, 2-(1-acetylpiperidin-4-yl)-1-[(2R,4R)-2-methyloxan-4-yl]-1H-imidazo[4,5-c]quinoline-8-carbonitrile] | 343 | 1.26
19 | C[C@@H]1C[C@H](n2c(CC(=O)Nc3cnn(C)c(=O)c3)nc3cnc4ccc(Cl)cc4c32)CCO1 [Compound 206, N-(1-methyl-6-oxo-1,6-dihydro-4-pyridazinyl){3-[(2R,4R)-2-methyltetrahydro-2H-pyran-4-yl]-12-chloro-3,5,8-triazatricyclo[7.4.0.0^2,6]trideca-1,4,6,8,10,12-hexaen-4-yl}acetamide] | 8.37 | 0.48
20 | Cc1cc(F)ncc1NC(=O)Cc1nc2cnc3ccc(C#N)cc3c2n1[C@@H]1CCO[C@H](C)C1 [Compound 205, N-(6-fluoro-4-methyl-3-pyridyl){3-[(2R,4R)-2-methyltetrahydro-2H-pyran-4-yl]-12-cyano-3,5,8-triazatricyclo[7.4.0.0^2,6]trideca-1,4,6,8,10,12-hexaen-4-yl}acetamide] | 11.1 | 0.387
21 | C[C@@H]1C[C@H](n2c(C3CCN(C(=O)c4cccnn4)CC3)nc3cnc4ccc(C#N)cc4c32)CCO1 [Compound 117, 1-[(2R,4R)-2-methyloxan-4-yl]-2-[1-(pyridazine-3-carbonyl)piperidin-4-yl]-1H-imidazo[4,5-c]quinoline-8-carbonitrile] | 503 | 1.24
22 | C[C@@H]1C[C@H](n2c([C@H]3CN(CC4CC4)C(=O)O3)nc3cnc4ccc(C#N)cc4c32)CCO1 [Compound 36, 2-[(5R)-3-(cyclopropylmethyl)-2-oxo-1,3-oxazolidin-5-yl]-1-[(2R,4R)-2-methyloxan-4-yl]-1H-imidazo[4,5-c]quinoline-8-carbonitrile] | 63.8 | 1.16
23 | C[C@@H]1C[C@H](n2c(CC(=O)NCc3cccc(F)n3)nc3cnc4ccc(C#N)cc4c32)CCO1 [Compound 146, 2-{8-cyano-1-[(2R,4R)-2-methyloxan-4-yl]-1H-imidazo[4,5-c]quinolin-2-yl}-N-[(6-fluoropyridin-2-yl)methyl]acetamide] | 4.79 | 0.313
24 | C[C@@H]1C[C@H](n2c([C@@H]3CCN(C(=O)C4CC4)C3)nc3cnc4ccc(C#N)cc4c32)CCO1 [Compound 40, 2-[(3R)-1-cyclopropanecarbonylpyrrolidin-3-yl]-1-[(2R,4R)-2-methyloxan-4-yl]-1H-imidazo[4,5-c]quinoline-8-carbonitrile] | 685 | 9.19
25 | C[C@@H]1C[C@H](n2c(CC(=O)NCCC(F)(F)F)nc3cnc4ccc(C#N)cc4c32)CCO1 [Compound 167, 2-{8-cyano-1-[(2R,4R)-2-methyloxan-4-yl]-1H-imidazo[4,5-c]quinolin-2-yl}-N-(3,3,3-trifluoropropyl)acetamide] | 46.2 | 0.638

— patent US20250270209A1 (INTERLINE THERAPEUTICS, INC., priority 2022, published 2025)
